# Results as given in ChEMBL document CHEMBL3885861, “Open TG-GATES”.
# Species: Rattus norvegicus
# Experiment: Open TG-GATES - Regimen: Single
# Type: toxicity, organism-based, Sprague-Dawley
# Parameters: regimen Single, gender Male, age 6 weeks
# Conditions: in vivo, po, 30 mg/kg, route gavage, dose level High; for APTT / Bas / Eos / Fbg / Hb / Ht / Lym / MCH / MCHC / MCV / Mono / Neu / PT / Plat / RBC / Ret / WBC: tissue Blood; for KIDNEY_L / KIDNEY_R / KIDNEY_TOTAL: tissue Kidney; for LIVER: tissue Liver; for A/G / ALP / ALT / AST / BUN / CRE / Ca / Cl / DBIL / GLC / IP / K / LDH / Na / PL / RALB / TBIL / TC / TG / TP / gamma-GTP: tissue Plasma
structure (smiles),measurement,setting,value
C=CCO [ALLYL ALCOHOL],TERMINAL_BW,3 h,222.7 g
same,APTT,3 h,19.6 s
same,Bas,3 h,0%
same,Eos,3 h,1%
same,Fbg,3 h,211.6 mg/dL
same,Hb,3 h,13.4 g/dL
same,Ht,3 h,38.7%
same,Lym,3 h,75%
same,MCH,3 h,21.7 pg
same,MCHC,3 h,34.8%
same,MCV,3 h,62.3 fL
same,Mono,3 h,3%
same,Neu,3 h,20.4%
same,PT,3 h,12.4 s
same,Plat,3 h,134.6 x10_4/uL
same,RBC,3 h,622.4 x10_4/ul
same,Ret,3 h,7.4%
same,WBC,3 h,88.9 x10_2/uL
same,KIDNEY_L,3 h,1 g
same,KIDNEY_R,3 h,1 g
same,KIDNEY_TOTAL,3 h,1.9 g
same,LIVER,3 h,10.3 g
same,A/G,3 h,1.5
same,ALP,3 h,976.6 IU/L
same,ALT,3 h,42.8 IU/L
same,AST,3 h,77.2 IU/L
same,BUN,3 h,12 mg/dL
same,CRE,3 h,0.3 mg/dL
same,Ca,3 h,11 mg/dL
same,Cl,3 h,101.6 meq/L
same,DBIL,3 h,0.5 mg/dL
same,GLC,3 h,202.2 mg/dL
same,IP,3 h,8.9 mg/dL
same,K,3 h,3.7 meq/L
same,LDH,3 h,233.4 IU/L
same,Na,3 h,140.8 meq/L
same,PL,3 h,177 mg/dL
same,RALB,3 h,3.4 g/dL
same,TBIL,3 h,0.6 mg/dL
same,TC,3 h,80 mg/dL
same,TG,3 h,255 mg/dL
same,TP,3 h,5.6 g/dL
same,gamma-GTP,3 h,1.2 IU/L
same,TERMINAL_BW,6 h,220.4 g
same,APTT,6 h,19.3 s
same,Bas,6 h,0%
same,Eos,6 h,1%
same,Fbg,6 h,217 mg/dL
same,Hb,6 h,13.5 g/dL
same,Ht,6 h,39.5%
same,Lym,6 h,67%
same,MCH,6 h,20.5 pg
same,MCHC,6 h,34%
same,MCV,6 h,60.2 fL
same,Mono,6 h,5.2%
same,Neu,6 h,25.8%
same,PT,6 h,12.4 s
same,Plat,6 h,129.3 x10_4/uL
same,RBC,6 h,658 x10_4/ul
same,Ret,6 h,7.1%
same,WBC,6 h,127.5 x10_2/uL
same,KIDNEY_L,6 h,0.9 g
same,KIDNEY_R,6 h,0.9 g
same,KIDNEY_TOTAL,6 h,1.9 g
same,LIVER,6 h,9.4 g
same,A/G,6 h,1.4
same,ALP,6 h,1023.4 IU/L
same,ALT,6 h,101.2 IU/L
same,AST,6 h,168.4 IU/L
same,BUN,6 h,10.2 mg/dL
same,CRE,6 h,0.4 mg/dL
same,Ca,6 h,10.5 mg/dL
same,Cl,6 h,102.4 meq/L
same,DBIL,6 h,0.1 mg/dL
same,GLC,6 h,198.4 mg/dL
same,IP,6 h,9.2 mg/dL
same,K,6 h,3.8 meq/L
same,LDH,6 h,564.8 IU/L
same,Na,6 h,140.6 meq/L
same,PL,6 h,168 mg/dL
same,RALB,6 h,3.1 g/dL
same,TBIL,6 h,0.2 mg/dL
same,TC,6 h,85.4 mg/dL
same,TG,6 h,97.6 mg/dL
same,TP,6 h,5.3 g/dL
same,gamma-GTP,6 h,2 IU/L
same,TERMINAL_BW,9 h,216.4 g
same,APTT,9 h,18.7 s
same,Bas,9 h,0%
same,Eos,9 h,1%
same,Fbg,9 h,222.2 mg/dL
same,Hb,9 h,13.2 g/dL
same,Ht,9 h,38.8%
same,Lym,9 h,66.8%
same,MCH,9 h,21.3 pg
same,MCHC,9 h,34.1%
same,MCV,9 h,62.5 fL
same,Mono,9 h,3.2%
same,Neu,9 h,28.6%
same,PT,9 h,12.4 s
same,Plat,9 h,129.2 x10_4/uL
same,RBC,9 h,620.6 x10_4/ul
same,Ret,9 h,7.4%
same,WBC,9 h,104.8 x10_2/uL
same,KIDNEY_L,9 h,1 g
same,KIDNEY_R,9 h,1 g
same,KIDNEY_TOTAL,9 h,2 g
same,LIVER,9 h,9.3 g
same,A/G,9 h,1.5
same,ALP,9 h,1007 IU/L
same,ALT,9 h,30.6 IU/L
same,AST,9 h,64.2 IU/L
same,BUN,9 h,11.4 mg/dL
same,CRE,9 h,0.4 mg/dL
same,Ca,9 h,10.3 mg/dL
same,Cl,9 h,101.4 meq/L
same,DBIL,9 h,0.086 mg/dL
same,GLC,9 h,206.8 mg/dL
same,IP,9 h,10.5 mg/dL
same,K,9 h,4.2 meq/L
same,LDH,9 h,200 IU/L
same,Na,9 h,139 meq/L
same,PL,9 h,141.2 mg/dL
same,RALB,9 h,3.1 g/dL
same,TBIL,9 h,0.1 mg/dL
same,TC,9 h,73 mg/dL
same,TG,9 h,63.8 mg/dL
same,TP,9 h,5.2 g/dL
same,gamma-GTP,9 h,0.8 IU/L
same,TERMINAL_BW,24 h,231.4 g
same,APTT,24 h,18.2 s
same,Bas,24 h,0%
same,Eos,24 h,1%
same,Fbg,24 h,257.2 mg/dL
same,Hb,24 h,13 g/dL
same,Ht,24 h,38.3%
same,Lym,24 h,67.4%
same,MCH,24 h,20.9 pg
same,MCHC,24 h,34.1%
same,MCV,24 h,61.4 fL
same,Mono,24 h,4.4%
same,Neu,24 h,26.8%
same,PT,24 h,11.9 s
same,Plat,24 h,138.1 x10_4/uL
same,RBC,24 h,625 x10_4/ul
same,Ret,24 h,6.1%
same,WBC,24 h,103.6 x10_2/uL
same,KIDNEY_L,24 h,1 g
same,KIDNEY_R,24 h,1 g
same,KIDNEY_TOTAL,24 h,2 g
same,LIVER,24 h,11.5 g
same,A/G,24 h,1.4
same,ALP,24 h,963.8 IU/L
same,ALT,24 h,33.6 IU/L
same,AST,24 h,64 IU/L
same,BUN,24 h,12.6 mg/dL
same,CRE,24 h,0.4 mg/dL
same,Ca,24 h,10.4 mg/dL
same,Cl,24 h,102.4 meq/L
same,DBIL,24 h,0.052 mg/dL
same,GLC,24 h,203.8 mg/dL
same,IP,24 h,7.6 mg/dL
same,K,24 h,3.6 meq/L
same,LDH,24 h,209.8 IU/L
same,Na,24 h,141 meq/L
same,PL,24 h,148 mg/dL
same,RALB,24 h,3 g/dL
same,TBIL,24 h,0.1 mg/dL
same,TC,24 h,81.6 mg/dL
same,TG,24 h,83 mg/dL
same,TP,24 h,5.1 g/dL
same,gamma-GTP,24 h,0.8 IU/L
